According to patent US20230293430A1, “FORMULATIONS INCLUDING 5-[3-(3-HYDROXYPHENOXY)AZETIDIN-1-YL]-5-METHYL-2,2-DIPHENYLHEXANAMIDE” (Mylan Pharma UK Limited, priority 2020, published 2023):

Tests used:
[1] = Aerosolization performance (fine particle mass / fine particle fraction, Next Generation Impactor); format: physicochemical; conditions: 7% w/w blend strength with 60 μm coarse lactose LH200
Description: The expression “respirable fraction” refers to an index of the percentage of active particles which would reach the lungs in a patient. The respirable fraction is evaluated using a suitable in vitro apparatus such as Andersen Cascade Impactor (ACI), Multi Stage Liquid Impinger (MSLI) or Next Generation Impactor (NGI), according to procedures reported in common Pharmacopoeias, in particular in the European Pharmacopeia (Eur. Ph.) 7.3, 7th Edition, which is incorporated herein by reference in its entirety.
In this example, a dry powder blend formulation of carboxamide hydrochloride and lactose monohydrate was obtained and utilized to provide the MGR002 and MGR003 products. To achieve a FPM of 128 μg of MGR002, it has been determined that a 7% w/w carboxamide hydrochloride dry powder blend was required. The formulation included coarse lactose only (LH200, D50 of 60 μm), with a 5% w/w API overage to account for losses during the blending process. […]
Aerosolization performance information was obtained for the same batches of MGR002 and MGR003 as were used in obtaining emitted data. FIG. 3 illustrates the aerosolization performance as measured by fine particle mass (FPM) obtained from 6 devices from each MGR002 and MGR003 product. […]

[2] = Equivalence of TIR and FPM between products (ratio of geometric means, NGI); format: physicochemical
Description: Aerosolization performance information was obtained for the same batches of MGR002 and MGR003 as were used in obtaining emitted data. FIG. 3 illustrates the aerosolization performance as measured by fine particle mass (FPM) obtained from 6 devices from each MGR002 and MGR003 product. FIG. 4 and Table 37 below present the results and equivalence criteria, respectively for carboxamide hydrochloride of formula II. The results in Table 37 are listed in terms of total impactor recovery (TIR) and fine particle mass (FPM) for MGR001, MGR002 and MGR003, carboxamide compound, salmeterol and fluticasone propionate.
The mean particle mass (FPM) and mean total impactor recovery (TIR) from a next generation impactor (NGI) for each batch were equivalent, based on the fact that the upper/lower 90% confidence interval of the ratio of the geometric mean, and fell between 0.90 and 1.11. […] The fluticasone propionate and salmeterol xinafoate components of the MGR003 drug product also met the same performance targets as the MGR001 250/50 drug product.

Row | Structure (SMILES) | fine particle mass (FPM) achieved [1] [µg] | FPM: ratio of geometric means (MGR002 divided by MGR003) ([2]; fine particle mass) | TIR: ratio of geometric means (MGR002 divided by MGR003) ([2]; total impactor recovery) | FPM: ratio of geometric means (MGR001 divided by MGR003) ([2]; fine particle mass) | TIR: ratio of geometric means (MGR001 divided by MGR003) ([2]; total impactor recovery)
1 | CC(C)(CCC(C(N)=O)(c1ccccc1)c1ccccc1)N1CC(Oc2cccc(O)c2)C1.Cl [Carboxamide Hydrochloride, 5-[3-(3-Hydroxyphenoxy)azetidin-1-yl]-5-methyl-2,2-diphenylhexanamide hydrochloride] | 138 | 0.95 | 0.97 | – | –
2 | OCc1cc(C(O)CNCCCCCCOCCCCc2ccccc2)ccc1O (stereo not shown) [Salmeterol, salmeterol xinafoate] | – | – | – | 1.01 | 0.97
3 | CCC(=O)O[C@]1(C(=O)SCF)[C@H](C)C[C@H]2[C@@H]3C[C@H](F)C4=CC(=O)C=C[C@]4(C)[C@@]3(F)[C@@H](O)C[C@@]21C [Fluticasone propionate, fluticasone propionate] | – | – | – | 0.99 | 0.96
